US20200399262A1, “COMPOUNDS FOR INHIBITING PROTEIN DEGRADATION AND METHODS OF USE THEREOF IN THE TREATMENT OF CANCER” (PI Therapeutics Ltd, priority 2018, published 2020)

What was measured:
Assay in all cases: Cell viability panel, ATPlite 1Step
Type in all cases: cell-based
[1] = system: A-204; conditions: Homo sapiens, A204, Embryonal rhabdomyosarcoma, 72 h exposure, read-out: Compound EC50
In short: (§1)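 CyQUANT Direct lines were pre-seeded 24 h at 5,000-40,000 cells/well in RPMI 1640 with 10% FBS, dosed 0.04-1 μM for 48 h at 37° C., normalized to DMSO, EC50 via Tz/C/Ti growth formula. ATPlite lines got 8 doses, 0.04-32 μM, for 72 h.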

[2] = system: A-427; conditions: Homo sapiens, Lung adenocarcinoma, 72 h exposure, read-out: Compound EC50
In short: as §1

[3] = system: A-549; conditions: Homo sapiens, A549, Lung adenocarcinoma, 72 h exposure, read-out: Compound EC50
In short: as §1

[4] = system: A-704; conditions: Homo sapiens, A704, Renal cell carcinoma, 72 h exposure, read-out: Compound EC50
In short: as §1

[5] = system: BT-549; conditions: Homo sapiens, Invasive ductal carcinoma, 72 h exposure, read-out: Compound EC50
In short: as §1

[6] = system: C-33 A; conditions: Homo sapiens, Cervical squamous cell carcinoma, 72 h exposure, read-out: Compound EC50
In short: as §1

[7] = system: CCRF-CEM; conditions: Homo sapiens, T acute lymphoblastic leukemia, 72 h exposure, read-out: Compound EC50
In short: as §1

[8] = system: DB; conditions: Homo sapiens, Diffuse large B-cell lymphoma, 72 h exposure, read-out: Compound EC50
In short: as §1

[9] = system: DLD-1; conditions: Homo sapiens, Colon adenocarcinoma, 72 h exposure, read-out: Compound EC50
In short: as §1

[10] = system: Daoy; conditions: Homo sapiens, Medulloblastoma, 72 h exposure, read-out: Compound EC50
In short: as §1

[11] = system: G-361; conditions: Homo sapiens, Melanoma, 72 h exposure, read-out: Compound EC50
In short: as §1

[12] = system: Hs 578T; conditions: Homo sapiens, Invasive ductal carcinoma, 72 h exposure, read-out: Compound EC50
In short: as §1

[13] = system: J82; conditions: Homo sapiens, Bladder carcinoma, 72 h exposure, read-out: Compound EC50
In short: as §1

[14] = system: KATO III; conditions: Homo sapiens, Signet ring cell gastric adenocarcinoma, 72 h exposure, read-out: Compound EC50
In short: as §1

[15] = system: KU812; conditions: Homo sapiens, Chronic myelogenous leukemia, 72 h exposure, read-out: Compound EC50
In short: as §1

[16] = system: LoVo; conditions: Homo sapiens, Colon adenocarcinoma, 72 h exposure, read-out: Compound EC50
In short: as §1

[17] = system: MG-63; conditions: Homo sapiens, Osteosarcoma, 72 h exposure, read-out: Compound EC50
In short: as §1

[18] = system: NCI-H460; conditions: Homo sapiens, Large cell lung carcinoma, 72 h exposure, read-out: Compound EC50
In short: as §1

[19] = system: PA-1; conditions: Homo sapiens, Ovarian mixed germ cell tumor, 72 h exposure, read-out: Compound EC50
In short: as §1

[20] = system: RS4-11; conditions: Homo sapiens, B acute lymphoblastic leukemia, 72 h exposure, read-out: Compound EC50
In short: as §1

[21] = system: SJCRH30; conditions: Alveolar rhabdomyosarcoma, 72 h exposure, read-out: Compound EC50
In short: as §1

[22] = system: SNU-5; conditions: Homo sapiens, Gastric carcinoma, 72 h exposure, read-out: Compound EC50
In short: as §1

[23] = system: SW480; conditions: Homo sapiens, Colon adenocarcinoma, 72 h exposure, read-out: Compound EC50
In short: as §1

[24] = system: SW48; conditions: Homo sapiens, Colon adenocarcinoma, 72 h exposure, read-out: Compound EC50
In short: as §1

[25] = system: SW900; conditions: Homo sapiens, Squamous cell lung carcinoma, 72 h exposure, read-out: Compound EC50
In short: as §1

[26] = system: T98G; conditions: Homo sapiens, Glioblastoma, 72 h exposure, read-out: Compound EC50
In short: as §1

[27] = system: TCCSUP; conditions: Homo sapiens, TCC-SUP, Bladder carcinoma, 72 h exposure, read-out: Compound EC50
In short: as §1

[28] = system: U-118 MG; conditions: Homo sapiens, Astrocytoma, 72 h exposure, read-out: Compound EC50
In short: as §1

[29] = system: U-2 OS; conditions: Homo sapiens, U2OS, Osteosarcoma, 72 h exposure, read-out: Compound EC50
In short: as §1

[30] = system: U-87 MG; conditions: Homo sapiens, Glioblastoma, 72 h exposure, read-out: Compound EC50
In short: as §1

CN(C)CCCS(=O)(=O)N1C/C(=C\c2ccc(C#N)cc2)C(=O)/C(=C/c2ccc(C#N)cc2)C1 [Compound AA]
EC50 [1]: < 300 nM
EC50 [2]: < 300 nM
EC50 [3]: ≥ 1000 nM
EC50 [4]: 300 to 1000 nM
EC50 [5]: < 300 nM
EC50 [6]: < 300 nM
EC50 [7]: < 300 nM
EC50 [8]: < 300 nM
EC50 [9]: < 300 nM
EC50 [10]: < 300 nM
EC50 [11]: < 300 nM
EC50 [12]: < 300 nM
EC50 [13]: 300 to 1000 nM
EC50 [14]: 300 to 1000 nM
EC50 [15]: < 300 nM
EC50 [16]: < 300 nM
EC50 [17]: < 300 nM
EC50 [18]: < 300 nM
EC50 [19]: < 300 nM
EC50 [20]: < 300 nM
EC50 [21]: < 300 nM
EC50 [22]: 300 to 1000 nM
EC50 [23]: < 300 nM
EC50 [24]: 300 to 1000 nM
EC50 [25]: 300 to 1000 nM
EC50 [26]: 300 to 1000 nM
EC50 [27]: < 300 nM
EC50 [28]: < 300 nM
EC50 [29]: < 300 nM
EC50 [30]: < 300 nM
